Measured values as given in ChEMBL document CHEMBL5236596, “Discovery and Optimization of N-Acyl-6-sulfonamide-tetrahydroquinoline Derivatives as Novel Non-Steroidal Selective Glucocorticoid Receptor Modulators” (J Med Chem, 2022).

Experiments:
[1] = molecular target: T1, Glucocorticoid receptor (Homo sapiens, UniProt P04150); experiment: Binding affinity to glucocorticoid receptor (unknown origin) by Lanthascreen TR-FRET competition binding assay
T1 sequence (P04150 whole entry): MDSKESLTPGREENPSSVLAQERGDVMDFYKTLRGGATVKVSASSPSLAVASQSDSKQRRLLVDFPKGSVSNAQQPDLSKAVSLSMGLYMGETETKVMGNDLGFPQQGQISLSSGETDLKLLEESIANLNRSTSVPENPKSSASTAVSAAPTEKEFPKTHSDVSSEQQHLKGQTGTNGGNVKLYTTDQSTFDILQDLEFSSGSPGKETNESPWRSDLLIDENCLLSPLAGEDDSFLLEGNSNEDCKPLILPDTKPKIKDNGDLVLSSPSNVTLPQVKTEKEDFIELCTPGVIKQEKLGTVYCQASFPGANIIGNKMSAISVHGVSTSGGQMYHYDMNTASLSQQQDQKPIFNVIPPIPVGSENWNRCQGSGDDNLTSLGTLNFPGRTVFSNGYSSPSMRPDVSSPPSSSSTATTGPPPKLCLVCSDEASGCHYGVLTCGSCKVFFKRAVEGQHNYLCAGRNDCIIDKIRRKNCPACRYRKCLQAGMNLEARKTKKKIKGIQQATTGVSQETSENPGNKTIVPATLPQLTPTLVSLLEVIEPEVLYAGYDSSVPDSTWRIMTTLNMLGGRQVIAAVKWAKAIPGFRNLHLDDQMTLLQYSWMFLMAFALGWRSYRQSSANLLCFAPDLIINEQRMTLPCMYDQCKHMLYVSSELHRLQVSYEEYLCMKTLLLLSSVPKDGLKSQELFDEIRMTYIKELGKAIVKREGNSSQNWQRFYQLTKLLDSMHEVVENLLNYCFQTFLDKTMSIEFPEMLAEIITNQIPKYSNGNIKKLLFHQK

[2] = molecular target: T1, Glucocorticoid receptor; experiment: Modulation of glucocorticoid receptor (unknown origin) transfected in human HeLa cells assessed as transrepression by measuring inhibition of TNF-alpha induced NF-kappaB signalling incubated for 18 hrs by dual-luciferase reporter based assay; type: cell-based
[3] = molecular target: T1, Glucocorticoid receptor; experiment: Modulation of glucocorticoid receptor (unknown origin) transfected in human HeLa cells assessed as transrepression by measuring inhibition of PMA-induced AP-1 signalling incubated for 18 hrs by dual-luciferase reporter based assay; type: cell-based

## O=C(c1ccco1)N1CCCc2cc(N(S(=O)(=O)c3ccc(-c4ccccc4)cc3)S(=O)(=O)c3ccc(-c4ccccc4)cc3)ccc21
[1]
  IC50: 2290 nM
[2]
  IC50: 70 nM
[3]
  IC50: 4150 nM

## O=C(c1ccco1)N1CCCc2cc(NS(=O)(=O)c3ccc([N+](=O)[O-])cc3)ccc21
[1]
  IC50: > 50000 nM
[2]
  IC50: 3620 nM
[3]
  IC50: 4270 nM

## O=C(c1ccco1)N1CCCc2cc(N(S(=O)(=O)Cc3ccccc3)S(=O)(=O)Cc3ccccc3)ccc21
[2]
  IC50: > 50000 nM
[3]
  IC50: > 50000 nM

## O=C(c1ccco1)N1CCCc2cc(NS(=O)(=O)c3ccc(Cl)c([N+](=O)[O-])c3)ccc21
[1]
  IC50: 590 nM
[2]
  IC50: 260 nM
[3]
  IC50: 1000 nM

## COc1cc(C)c(Cl)cc1S(=O)(=O)Nc1ccc2c(c1)CCCN2C(=O)c1ccncc1
[1]
  IC50: > 50000 nM
[2]
  IC50: 20 nM
[3]
  IC50: 550 nM

## COc1cc(C)c(Cl)cc1S(=O)(=O)Nc1ccc2c(c1)N(C(=O)c1ccco1)CCC2
[1]
  IC50: > 50000 nM
[2]
  IC50: 60 nM
[3]
  IC50: 680 nM

## COc1cc(C)c(C)cc1S(=O)(=O)Nc1ccc2c(c1)CCCN2C(=O)C1CC1
[1]
  IC50: 7500 nM
[2]
  IC50: 100 nM
[3]
  IC50: 360 nM

## O=C(c1ccco1)N1CCCc2cc(N(S(=O)(=O)c3ccccc3)S(=O)(=O)c3ccccc3)ccc21
[1]
  IC50: > 50000 nM
[2]
  IC50: 390 nM
[3]
  IC50: 620 nM

## O=C(c1ccco1)N1CCCc2cc(N(S(=O)(=O)c3ccc(C(F)(F)F)cc3)S(=O)(=O)c3ccc(C(F)(F)F)cc3)ccc21
[2]
  IC50: > 50000 nM
[3]
  IC50: > 50000 nM

## CCCCc1ccc(S(=O)(=O)Nc2ccc3c(c2)CCCN3C(=O)c2ccco2)cc1
[1]
  IC50: 7160 nM
[2]
  IC50: 1150 nM
[3]
  IC50: 3690 nM

## O=C(c1ccco1)N1CCCc2cc(N(S(=O)(=O)c3ccc(F)cc3)S(=O)(=O)c3ccc(F)cc3)ccc21
[1]
  IC50: > 50000 nM
[2]
  IC50: 840 nM
[3]
  IC50: 2250 nM

## Cc1ccc(S(=O)(=O)N(c2ccc3c(c2)CCCN3C(=O)c2ccco2)S(=O)(=O)c2ccc(C)cc2)cc1
[1]
  IC50: > 50000 nM
[2]
  IC50: 90 nM
[3]
  IC50: 330 nM

## O=C(c1ccco1)N1CCCc2cc(NS(=O)(=O)c3ccc(-c4ccccc4)cc3)ccc21
[1]
  IC50: 90 nM
[2]
  IC50: 810 nM
[3]
  IC50: 7220 nM

## CCCCc1ccc(C(=O)N2CCCc3cc(NS(=O)(=O)c4cc(Cl)c(C)cc4OC)ccc32)cc1
[1]
  IC50: > 50000 nM
[2]
  IC50: 100 nM
[3]
  IC50: > 10000 nM

## O=C(c1ccco1)N1CCCc2cc(NS(=O)(=O)c3cccs3)ccc21
[1]
  IC50: > 50000 nM
[2]
  IC50: > 10000 nM
[3]
  IC50: 9260 nM

## O=C(c1ccco1)N1CCCc2cc(NS(=O)(=O)c3ccc4c(c3)CCCC4)ccc21
[1]
  IC50: 1220 nM
[2]
  IC50: 320 nM
[3]
  IC50: 4070 nM

## COc1cc(C)c(Cl)cc1S(=O)(=O)Nc1ccc2c(c1)CCCN2C(=O)C1CCCCC1
[1]
  IC50: > 50000 nM
[2]
  IC50: 580 nM
[3]
  IC50: > 10000 nM

## N#Cc1ccc(S(=O)(=O)N(c2ccc3c(c2)CCCN3C(=O)c2ccco2)S(=O)(=O)c2ccc(C#N)cc2)cc1
[1]
  IC50: > 30000 nM
[2]
  IC50: > 10000 nM
[3]
  IC50: 3150 nM

## COC(=O)c1ccc(C(=O)N2CCCc3cc(NS(=O)(=O)c4cc(Cl)c(C)cc4OC)ccc32)cc1
[1]
  IC50: > 50000 nM
[2]
  IC50: 710 nM
[3]
  IC50: 2720 nM

## COc1ccc(S(=O)(=O)Nc2ccc3c(c2)CCCN3C(=O)c2ccco2)cc1
[1]
  IC50: > 50000 nM
[2]
  IC50: 1830 nM
[3]
  IC50: 5620 nM

## O=C(c1ccco1)N1CCCc2cc(NS(=O)(=O)c3ccc(C(F)(F)F)cc3)ccc21
[1]
  IC50: > 50000 nM
[2]
  IC50: 2620 nM
[3]
  IC50: 3220 nM

## N#Cc1ccc(S(=O)(=O)Nc2ccc3c(c2)CCCN3C(=O)c2ccco2)cc1
[2]
  IC50: > 10000 nM
[3]
  IC50: > 10000 nM

## O=C(c1ccco1)N1CCCc2cc(NS(=O)(=O)c3ccc(F)cc3)ccc21
[2]
  IC50: > 10000 nM
[3]
  IC50: > 10000 nM

## CN(C)c1cccc2c(S(=O)(=O)Nc3ccc4c(c3)CCCN4C(=O)c3ccco3)cccc12
[1]
  IC50: > 50000 nM
[2]
  IC50: 210 nM
[3]
  IC50: 1670 nM

## COc1cc(C)c(Cl)cc1S(=O)(=O)Nc1ccc2c(c1)CCCN2C(=O)c1ccc(Cl)cc1
[1]
  IC50: 2070 nM
[2]
  IC50: 100 nM
[3]
  IC50: 1810 nM

## COc1ccccc1S(=O)(=O)Nc1ccc2c(c1)CCCN2C(=O)c1ccco1
[1]
  IC50: > 10000 nM
[2]
  IC50: 900 nM
[3]
  IC50: 4910 nM

## O=C(c1ccco1)N1CCCc2cc(N(S(=O)(=O)c3ccc([N+](=O)[O-])cc3)S(=O)(=O)c3ccc([N+](=O)[O-])cc3)ccc21
[1]
  IC50: > 50000 nM
[2]
  IC50: 2660 nM
[3]
  IC50: 4800 nM

## COc1cc(C)c(Cl)cc1S(=O)(=O)Nc1ccc2c(c1)CCCN2C(=O)c1ccc(C)cc1F
[2]
  IC50: > 10000 nM
[3]
  IC50: > 10000 nM
